The text below walks through data of patent US11857601B2, “Pharmaceutical composition for cancer treatment comprising fusion protein including IL-2 protein and CD80 protein and anticancer drug” (GI INNOVATION, INC., priority 2020, dated 2024).

Marks after values point to notes of the source that are not given here.

In test [1] the test system is CT26 (mouse colon carcinoma) cells. Nature of the test: mGI-101 and Galunisertib in CT26 allotransplanted tumor model. The settings on record: mean ± SD, mGI-101 3 mg/kg IP, Galunisertib 75 mg/kg PO. It is filed as in vivo, BALB/cAnHsd mice. The procedure:
6-week-old male BALB/cAnHsd mice were purchased and used for the test.
The tumor size was measured three times a week for 3 weeks from the day of start of administration of the test substance. The major axis and minor axis of the tumor were measured using a caliper, and the tumor size (tumor volume, TV) was calculated using the following equations. TV (mm^3)=(W^2×L)/2 [Equation 1]

Test [2] relates to immune cells in cancer tissues. The test is described as follows: Immune cell analysis in CT-26 cancer tissue (FACS). It is filed as in vivo, BALB/c mice. The source says:
(§1) The mice of each group in Experimental Example 16.1 were sacrificed when the tumor volume reached an average of 200 mm^3, and cancer tissues were collected.

Test [3] concerns immune cells in cancer tissues. The test is described as follows: Immune cell analysis in LL/2 cancer tissue (FACS). It is filed as in vivo, C57BL/6 mice. The procedure:
as §1
Thereafter, FACS analysis was performed in the same manner as Experimental Example 16.2. to analyze immune cells in the cancer tissues.

In the next test the test system is MDA-MB-231 cells. Nature of the test: Cancer cell killing, GI-101 and Ribociclib, MDA-MB-231 with PBMCs. Conditions: GI-101 100 nM, Ribociclib 913 nM, 24 hours, compared with co-culturing only cancer cells and PBMCs. Format: cell-based, human. The source says: This experiment was to evaluate the effect of killing cancer cells by treating MDA-MB-231 cells (human breast cancer cells) with the test substance GI-101 alone or in combination with Ribociclib substance in an in vitro environment.
MDA-MB-231 cells were purchased from the Korea cell line bank and cultured in RPMI1640 medium (Gibco) containing 10% FBS (Gibco) and 1% antibiotic/antifungal agent (Gibco). For use in cancer cell killing test, the cells were harvested using trypsin (Gibco), and then suspended in RPMI1640 medium, and then dead cells and debris were removed using Ficoll (GE Healthcare Life Sciences) solution. The cells suspended in RPMI1640 medium were carefully layered on ficoll solution. […]
In order to identify the effect of killing the cells, a CytoTox Green reagent ([…]™ CytoTox Green, Satorius) that binds to the DNA of cells to be killed was prepared in 1 μl per 1 mL of RPMI1640 medium containing 5% human AB serum (Sigma). The prepared medium was used for dilution of the test substance, and the effect of killing the cells could be quantitatively identified by staining the cells to be killed when the test substance was co-cultured with cancer cell lines and PBMCs. […]

[4] abbreviates: all GI101 groups, vs negative control.

Turning to “mGI101: fusion protein: mouse CD80, Ig hinge, Fc domain, linker, IL-2 variant (2M) (R38A, F42A); SEQ ID NO: 15”, the Tumor size in test [1] (Day 0) is on record as 61.96 ± 11.81 mm^3; in test [1] (Day 2), 177.83 ± 78.22 mm^3; in test [1] (Day 4), 224.56 ± 105.31** mm^3; in test [1] (Day 7), 291.81 ± 155.23 (9)* mm^3. The Tumor growth inhibition in test [1] (Day 2) was 21.91 ± 53.41%; in test [1] (Day 4), 46.07 ± 35.1 %; in test [1] (Day 7) it was 46.48 ± 36.39 (9) %.
As to “GI101: fusion protein: human CD80 fragment, Ig hinge, Fc domain, linker, IL-2 variant (2M) (R38A, F42A); SEQ ID NO: 9”, the “CD8+ T cells in cancer tissue” value in test [2] (0.1 mg/kg, compared with anti-PD-1 antibody alone 5 mg/kg) is on record as “significant increase”; in test [3] (0.1 mg/kg, compared with anti-PD-1 antibody alone) it was “significant increase”. The M1 macrophages result in test [2] (0.1 mg/kg, vs negative control and anti-PD-1 antibody alone) is “increase”. For the same substance, the “level of CD86 expression in macrophages and dendritic cells” value in test [2] (all GI101 groups) and in test [3] (all GI101 groups) was “increased level” throughout. In test [2] (setting [4]), the “level of expression of IFN-γ in T cells” value was “significantly increased level”. Besides, the “level of expression of IFN-γ” value in test [3] (setting [4]) is listed as “significantly increased level”. In addition, the “effect of killing cancer cells” value in the test on MDA-MB-231 cells is “co-culturing only cancer cells and PBMCs, the effect of killing cancer cells was identified, and tended to be higher than that of treatment with GI-101 alone”.
